Measured values from patent publication US11453904B2, “Evaluation method for permeability of porous membrane, cell evaluation method, and drug evaluation method” (FUJIFILM CORPORATION, priority 2019, dated 2022).

Tested on: endothelial cells 301 and the smooth muscle cells 302
Experiment: drug evaluation method: toxicity of a drug to cells cultured on the porous membrane of a microfluidic device, read by flow rate in the lower micro flow channel
Format: cell-based
Conditions: cytochalasin 50 μg/ml contained in liquid A and liquid B; concluded from the increased flow-rate slope (decreased barrier property)
Source text: The drug evaluation method according to the present embodiment includes culturing cells on the surface of the porous membrane 30 of the microfluidic device 110 (a step S41). […] This makes it possible to form a structure that simulates the blood vessel (the artery) in the microfluidic device 110. It is noted that the cells to be evaluated may be cultured only on one surface of the porous membrane 30.
The drug evaluation method according to the present embodiment includes exposing cells cultured on the surface of the porous membrane 30 to a drug to be evaluated (a step S42). That is, a liquid containing a drug to be evaluated is supplied to each of the upper micro flow channel 18 and the lower micro flow channel 24.
The drug evaluation method according to the present embodiment includes acquiring the evaluation indicator of the permeability of the porous membrane 30 according to any one of the first to third embodiments described above as an indicator of toxicity of the drug to be evaluated to the cells. That is, the change that occurs in the liquid accommodated in the lower micro flow channel 24 is acquired as an indicator of toxicity of the drug to be evaluated to the cells, in a case where the liquid is supplied to the upper micro flow channel 18 while the supply pressure is being changed (a step S43). […]

For cytochalasin, the “toxicity to the endothelial cells 301 and the smooth muscle cells 302” value was “has toxicity”.
